Where two headings read alike, the source gives them in different places. One block for each compound: values may come before it.
Key:
P-gp [1] = assay: Emodin transport in jejunum in the presence of P-gp inhibitor verapamil (Ussing chamber); details: rat jejunum, emodin 9.25 μM, verapamil 220 μM on mucosal side
Text: (§1) The four intestinal segments including duodenum, jejunum, ileum, and colon from anesthetized rats were immediately removed by surgery and washed with KRB solution. Each section of the intestinal segments was then placed in cold (on ice), bubbled (O2:CO2 95:5) KRB buffer. The four intestinal segments were then cut into 2 cm pieces, respectively, and serosas were removed by blunt dissection. Peyer’s patches were excluded from the experiment by visually identified. The stripped tissues were mounted in chambers with exposed surface area of 0.49 cm^2. Temperature of the chambers was maintained at 37 ± 0.5°C. Each of the half-cells in the chambers was filled with 5 mL fresh KRB buffer (pH 6.5). […]
(§2) In this study, the effects of the three efflux transporters on emodin intestinal absorption were investigated. […] Changes of the bidirectional transport characteristic were measured before and after adding emodin to the mucosal side. […]
(§3) The quantifications of the compounds were performed by the TSQ Quantum Ultra Triple Quadrupole LC-MS/MS system from Thermo Fisher Scientific. […]
(§4) The Q (accumulative quantity), Papp (apparent permeability), Er (efflux ratio), Pr (Papp ratio), and Err (Er ratio) across the excited rat intestinal segments in the Ussing chamber were calculated using the following equations ([Li et al., 2012]; [Huang et al., 2016]): […]

[2] = test system: multidrug-resistant associated protein 2 (MRP2); set-up: method as in Teng et al., 2007, 2012; Liu et al., 2012; details: ref Teng et al., 2007, 2012, Liu et al.; cited from earlier work
P-gp [3] = assay: Influence of emodin on P-gp function: digoxin bidirectional transport in the presence of emodin (Ussing chamber); format: in vitro ADME; details: rat jejunum, emodin 185, 370, 740 μM, digoxin as substrate
Text: (§5) The four intestinal segments including duodenum, jejunum, ileum, and colon from anesthetized rats were immediately removed by surgery and washed with KRB solution. Each section of the intestinal segments was then placed in cold (on ice), bubbled (O2:CO2 95:5) KRB buffer. The four intestinal segments were then cut into 2 cm pieces, respectively, and serosas were removed by blunt dissection. Peyer’s patches were excluded from the experiment by visually identified. The stripped tissues were mounted in chambers with exposed surface area of 0.49 cm^2. Temperature of the chambers was maintained at 37 ± 0.5°C. Each of the half-cells in the chambers was filled with 5 mL fresh KRB buffer (pH 6.5). Tissue viability was continuously controlled by potential difference (PD). Tissue with electrical values less than 2 mV was refused ([Moazed and Hiebert, 2007]; [Heinen et al., 2013]).
(§6) In this study, the effects of the three efflux transporters on emodin intestinal absorption were investigated. Meanwhile, the influence of emodin on intestinal P-gp, MRP2, and MRP3 functions were also discussed. Solutions with three concentrations (low, middle, and high) of emodin were filled in the mucosal or serosal compartment to measure the bidirectional transport characteristic. […] In the emodin impact experiments, digoxin, pravastatin, and teniposide were employed as P-gp, MRP2, and MRP3 substrates. Changes of the bidirectional transport characteristic were measured before and after adding emodin to the mucosal side.
(§7) Frozen samples were adequately vortexed after thawing at the room temperature; 10 μL suitable IS solution was added to 200 μL samples; 200 μL methanol was added after a thorough vortex mixing for 30 s. The mixtures were then vortexed for 30 s and centrifuged at 15,000 rpm for 30 min. Finally, 5 μL of supernatant was injected into the LC-MS/MS system.
(§8) The quantifications of the compounds were performed by the TSQ Quantum Ultra Triple Quadrupole LC-MS/MS system from Thermo Fisher Scientific. Chromatography was carried out using an Agilent Poroshell 120 SB-C18 (2.7 μm, 2.1 mm × 100 mm) column with a Phenomenex AFO-8497 C18 pre-column, operating at 30°C. Adaptive gradient elution methods were applied for the analytes. The flow rate of the mobile phase was kept at 0.2 mL min^-1. Flow was directed to the ion spray interface. All measurements were carried out in negative ESI mode. Ion spray voltage was -2500 V. Vaporizer and capillary temperatures were set at 250 and 350°C, respectively. Auto sampler temperature was set at 10°C. Sheath gas and aux gas were set at 30 and 15 Arb, respectively. […] Peak integrations and calibrations were carried out using LC Quan 2.5.2 software from Thermo Fisher Scientific.
as §4
(§9) where Cn (nM) is the concentration of the drug at the time point (n), Q (nM) is the accumulated absorption amount, A is the exposed surface area of the intestine (0.49 cm^2), dQ/dt (nM⋅s^-1) is the amount of the drug transported, and C0 (nM) is the initial concentration of the test drug. Experiments were performed in batches, so control groups were set as one for each batch.

MRP2 = MRP2 (Rattus norvegicus, UniProt Q63120); assay: Emodin transport in jejunum in the presence of MRP2 inhibitor MK571 (Ussing chamber); details: MK571 186 μM on mucosal side
MRP2, sequence (Q63120 whole entry): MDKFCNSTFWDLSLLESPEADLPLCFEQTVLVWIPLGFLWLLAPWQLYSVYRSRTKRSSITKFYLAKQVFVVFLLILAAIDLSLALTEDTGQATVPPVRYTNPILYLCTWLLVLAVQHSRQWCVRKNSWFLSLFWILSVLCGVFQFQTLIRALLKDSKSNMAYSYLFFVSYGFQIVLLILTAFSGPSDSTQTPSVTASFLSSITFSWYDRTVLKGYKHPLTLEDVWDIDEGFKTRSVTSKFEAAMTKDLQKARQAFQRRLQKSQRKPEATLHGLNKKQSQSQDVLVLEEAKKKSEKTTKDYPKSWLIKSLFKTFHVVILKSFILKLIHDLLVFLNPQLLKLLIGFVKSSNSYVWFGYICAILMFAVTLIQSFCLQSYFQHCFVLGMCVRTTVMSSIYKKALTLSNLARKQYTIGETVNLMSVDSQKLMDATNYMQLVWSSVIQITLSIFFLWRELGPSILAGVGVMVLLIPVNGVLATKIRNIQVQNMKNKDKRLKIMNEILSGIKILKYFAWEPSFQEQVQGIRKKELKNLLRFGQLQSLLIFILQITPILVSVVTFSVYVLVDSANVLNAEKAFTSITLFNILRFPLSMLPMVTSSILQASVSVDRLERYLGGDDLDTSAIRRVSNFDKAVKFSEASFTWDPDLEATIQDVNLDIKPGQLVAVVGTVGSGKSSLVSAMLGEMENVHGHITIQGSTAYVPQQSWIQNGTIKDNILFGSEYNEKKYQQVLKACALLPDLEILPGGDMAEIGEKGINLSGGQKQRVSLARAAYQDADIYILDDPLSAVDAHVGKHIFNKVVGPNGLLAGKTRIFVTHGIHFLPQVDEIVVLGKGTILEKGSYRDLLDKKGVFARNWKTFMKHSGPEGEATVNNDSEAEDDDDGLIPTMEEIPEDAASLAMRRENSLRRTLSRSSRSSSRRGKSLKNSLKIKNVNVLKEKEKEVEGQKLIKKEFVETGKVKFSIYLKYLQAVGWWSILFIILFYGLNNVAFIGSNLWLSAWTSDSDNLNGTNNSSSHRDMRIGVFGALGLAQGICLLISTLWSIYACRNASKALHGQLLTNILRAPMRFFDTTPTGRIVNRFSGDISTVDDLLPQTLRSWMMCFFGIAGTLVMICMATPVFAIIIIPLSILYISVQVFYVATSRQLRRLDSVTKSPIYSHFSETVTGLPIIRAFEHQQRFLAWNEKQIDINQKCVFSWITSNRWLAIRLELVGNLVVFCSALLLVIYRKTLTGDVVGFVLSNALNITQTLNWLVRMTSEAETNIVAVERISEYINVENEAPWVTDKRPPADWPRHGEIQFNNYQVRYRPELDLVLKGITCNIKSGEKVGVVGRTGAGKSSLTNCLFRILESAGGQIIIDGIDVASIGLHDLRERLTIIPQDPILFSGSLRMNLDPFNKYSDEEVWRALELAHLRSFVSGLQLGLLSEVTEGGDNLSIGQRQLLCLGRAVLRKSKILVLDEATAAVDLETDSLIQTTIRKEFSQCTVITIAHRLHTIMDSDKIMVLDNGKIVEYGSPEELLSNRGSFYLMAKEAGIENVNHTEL
Text: as §1, §2, §3, §4

MRP3 [4] = molecular target: T1, MRP3 (Rattus norvegicus, UniProt O88563); assay: Emodin transport in jejunum in the presence of MRP3 inhibitor benzbromarone (Ussing chamber); format: in vitro ADME
T1 construct: intestinal segments including duodenum, jejunum, ileum, and colon from anesthetized rats were immediately removed by surgery; from tissue; host or cells: stripped rat intestine (jejunum and ileum in validation; jejunum for the emodin studies)
T1 sequence (O88563 whole entry): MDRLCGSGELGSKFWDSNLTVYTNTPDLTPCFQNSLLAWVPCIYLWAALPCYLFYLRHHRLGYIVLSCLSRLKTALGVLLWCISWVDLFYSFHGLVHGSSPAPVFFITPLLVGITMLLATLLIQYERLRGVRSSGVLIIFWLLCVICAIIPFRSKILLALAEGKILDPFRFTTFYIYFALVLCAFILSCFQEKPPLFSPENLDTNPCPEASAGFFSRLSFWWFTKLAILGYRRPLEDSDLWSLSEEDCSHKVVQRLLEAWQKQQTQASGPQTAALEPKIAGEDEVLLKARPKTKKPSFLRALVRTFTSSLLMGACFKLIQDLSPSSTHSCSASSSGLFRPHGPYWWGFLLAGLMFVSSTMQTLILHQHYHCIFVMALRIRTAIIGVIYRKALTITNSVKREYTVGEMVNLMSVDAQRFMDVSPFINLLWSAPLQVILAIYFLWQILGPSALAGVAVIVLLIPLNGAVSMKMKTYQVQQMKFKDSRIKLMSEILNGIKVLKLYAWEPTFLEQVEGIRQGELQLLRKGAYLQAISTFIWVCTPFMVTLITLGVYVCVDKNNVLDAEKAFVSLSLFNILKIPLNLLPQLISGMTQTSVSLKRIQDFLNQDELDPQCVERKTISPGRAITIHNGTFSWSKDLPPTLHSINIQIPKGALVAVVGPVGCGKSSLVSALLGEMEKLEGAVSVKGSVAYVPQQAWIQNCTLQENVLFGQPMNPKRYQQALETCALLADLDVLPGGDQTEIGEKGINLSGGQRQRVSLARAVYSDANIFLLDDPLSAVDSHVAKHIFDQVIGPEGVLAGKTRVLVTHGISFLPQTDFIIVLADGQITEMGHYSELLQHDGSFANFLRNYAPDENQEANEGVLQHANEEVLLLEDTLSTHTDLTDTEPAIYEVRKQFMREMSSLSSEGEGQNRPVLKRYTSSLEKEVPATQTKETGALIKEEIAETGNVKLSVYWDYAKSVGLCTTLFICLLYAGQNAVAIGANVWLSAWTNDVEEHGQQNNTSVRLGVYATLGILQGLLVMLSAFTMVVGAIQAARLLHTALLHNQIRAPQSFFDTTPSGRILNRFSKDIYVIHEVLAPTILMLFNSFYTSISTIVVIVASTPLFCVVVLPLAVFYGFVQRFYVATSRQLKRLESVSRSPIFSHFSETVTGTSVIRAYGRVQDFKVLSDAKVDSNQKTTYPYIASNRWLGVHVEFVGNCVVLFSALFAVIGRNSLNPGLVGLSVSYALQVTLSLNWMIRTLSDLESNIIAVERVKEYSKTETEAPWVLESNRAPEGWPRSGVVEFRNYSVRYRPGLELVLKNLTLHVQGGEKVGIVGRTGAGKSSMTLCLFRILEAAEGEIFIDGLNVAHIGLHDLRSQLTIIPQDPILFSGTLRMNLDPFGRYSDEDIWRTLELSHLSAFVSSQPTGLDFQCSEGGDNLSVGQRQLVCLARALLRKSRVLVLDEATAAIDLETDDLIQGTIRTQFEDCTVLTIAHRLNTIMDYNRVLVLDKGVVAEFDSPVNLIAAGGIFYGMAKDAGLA
Text: as §1, §2, §3, §4

[5] = Absorption characteristics of emodin in rat intestinal segments (Ussing chamber)
Text: as §5
as §6, with “side. […]” for “side.”
as §3, §4

MRP3 [6] = molecular target: T1, MRP3; assay: Influence of emodin on MRP3 function: teniposide bidirectional transport in the presence of emodin (Ussing chamber); format: in vitro ADME; details: rat jejunum; for Papp at 60 μM: rat
Text: as §5, §6, §7, §8, §4, §9

P-glycoprotein (P-gp) = test system: P-glycoprotein (P-gp); set-up: method as in Teng et al., 2007, 2012; Liu et al., 2012; details: ref Teng et al., 2007, 2012, Liu et al.; cited from earlier work
MRP3 [7] = molecular target: T1, MRP3; assay: Ussing chamber bidirectional transport, model validation for MRP3 (teniposide substrate, benzbromarone inhibitor); format: in vitro ADME; details: rat
Text: as §5
Digoxin, pravastatin, and teniposide were employed as the test substrates of P-gp, MRP2, and MRP3. […] The experiments were started after 30 min equilibration time, by changing the KRB buffer on both sides; 5 mL KRB solution with different test compounds was filled in the mucosal or serosal compartment; meanwhile, equal volume fresh buffer was added to the other compartment. […] The bidirectional transport studies with specific inhibitors were assessed to validate this model whether or not suitable for P-gp, MRP2, and MRP3 studies. Samples were stored at –80°C until analysis ([Deusser et al., 2013]).
as §7, §8, §4, §9

[8] = set-up: method as in Di et al. (2015); details: ref Di et al. (2015); cited from earlier work
Caco-2 cell = test system: Caco-2 cell; set-up: method as in Yu et al. (2017); details: Caco-2 cell culture model; ref Yu et al. (2017); cited from earlier work

SMILES: Cc1cc(O)c2c(c1)C(=O)c1cc(O)cc(O)c1C2=O [Emodin, 1,3,8trihydroxy-6-methylanthraquinone]
Change of emodin absorption (M-S) with verapamil (P-gp [1]): markedly increase | Change of emodin efflux ratio with verapamil (P-gp [1]): decrease | Substrate of MRP2 [2]: substrate | Effect of emodin on P-gp function (P-gp [3]): could enhance P-gp function | Change of emodin Papp from mucosal to serosal side with MK571 (MRP2): significantly increased | Change of emodin efflux ratio with MK571 (MRP2): decreased | Substrate of MRP3 (MRP3 [4]; Ussing chamber): might not be a substrate | Change of emodin transport with benzbromarone (MRP3 [4]; benzbromarone 470 μM on mucosal side): no significant differences | Regioselectivity of intestinal absorption rates ([5]; duodenum, jejunum, ileum, colon, 9.25, 18.5 and 37 μM): no regioselectivity | Papp values from M-S ([5]; rat intestinal segments, lowest concentration (9.25 μM)): very low | Er (efflux ratio) of emodin ([5]; rat jejunum, at all three concentrations 9.25, 18.5 and 37 μM): more than five | Effect of emodin on MRP3 function (MRP3 [6]; emodin 185, 370, 740 μM, teniposide as substrate): might be an MRP3 inhibitor | Substrate of P-gp (P-glycoprotein (P-gp)): substrate

Papp (MRP3 [7]; pH 6.5, rat colon, without inhibitor, read-out: Papp M-S, control): 16 ± 11.1 ×10⁻⁶ cm/s | Papp (MRP3 [7]; pH 6.5, rat colon, without inhibitor, read-out: Papp S-M, control): 21.3 ± 11.9 ×10⁻⁶ cm/s | Papp (MRP3 [7]; pH 6.5, rat ileum, without inhibitor, read-out: Papp M-S, control): 12.6 ± 7.7 ×10⁻⁶ cm/s | Papp (MRP3 [7]; pH 6.5, rat ileum, without inhibitor, read-out: Papp S-M, control): 24.5 ± 10 ×10⁻⁶ cm/s | Papp (MRP3 [7]; pH 6.5, rat jejunum, without inhibitor, read-out: Papp M-S, control): 14 ± 4.4 ×10⁻⁶ cm/s | Papp (MRP3 [7]; pH 6.5, rat jejunum, without inhibitor, read-out: Papp S-M, control): 33.5 ± 14 ×10⁻⁶ cm/s | Papp (MRP3 [7]; pH 6.5, with benzbromarone 470 μM, mucosal side, rat colon, with benzbromarone 470 μM on mucosal side, read-out: Papp M-S, with inhibitor): 28.3 ± 8.4 ×10⁻⁶ cm/s | Papp (MRP3 [7]; pH 6.5, with benzbromarone 470 μM, mucosal side, rat colon, with benzbromarone 470 μM on mucosal side, read-out: Papp S-M, with inhibitor): 8.3 ± 1.9 ×10⁻⁶ cm/s | Papp (MRP3 [7]; pH 6.5, with benzbromarone 470 μM, mucosal side, rat ileum, with benzbromarone 470 μM on mucosal side, read-out: Papp M-S, with inhibitor): 28 ± 19.5 ×10⁻⁶ cm/s | Papp (MRP3 [7]; pH 6.5, with benzbromarone 470 μM, mucosal side, rat ileum, with benzbromarone 470 μM on mucosal side, read-out: Papp S-M, with inhibitor): 10.3 ± 2.9 ×10⁻⁶ cm/s | Papp (MRP3 [7]; pH 6.5, with benzbromarone 470 μM, mucosal side, rat jejunum, with benzbromarone 470 μM on mucosal side, read-out: Papp M-S, with inhibitor): 37.2 ± 9.7 ×10⁻⁶ cm/s | Papp (MRP3 [7]; pH 6.5, with benzbromarone 470 μM, mucosal side, rat jejunum, with benzbromarone 470 μM on mucosal side, read-out: Papp S-M, with inhibitor): 13.1 ± 6.4 ×10⁻⁶ cm/s | Change of Papp from S-M and Er of teniposide in the presence of emodin (MRP3 [6]; teniposide 60 μM, emodin 185, 370, 740 μM): remarkably decreased | Papp at 60 μM (MRP3 [6]; pH 6.5, teniposide 60 μM, without emodin, read-out: Papp M-S, control): 69.4 ± 17.5 ×10⁻⁶ cm/s | Papp at 60 μM (MRP3 [6]; pH 6.5, teniposide 60 μM, without emodin, read-out: Papp S-M, control): 81.8 ± 15.9 ×10⁻⁶ cm/s | Papp at 60 μM (MRP3 [6]; pH 6.5, with emodin 185 μM on mucosal side, teniposide 60 μM, emodin 185 μM on mucosal side, read-out: Papp M-S in the presence of emodin): 63.2 ± 5.9 ×10⁻⁶ cm/s | Papp at 60 μM (MRP3 [6]; pH 6.5, with emodin 185 μM on mucosal side, teniposide 60 μM, emodin 185 μM on mucosal side, read-out: Papp S-M in the presence of emodin): 56.1 ± 5.7 ×10⁻⁶ cm/s | Papp at 60 μM (MRP3 [6]; pH 6.5, with emodin 370 μM on mucosal side, teniposide 60 μM, emodin 370 μM on mucosal side, read-out: Papp M-S in the presence of emodin): 52.5 ± 7.3 ×10⁻⁶ cm/s | Papp at 60 μM (MRP3 [6]; pH 6.5, with emodin 370 μM on mucosal side, teniposide 60 μM, emodin 370 μM on mucosal side, read-out: Papp S-M in the presence of emodin): 31.2 ± 13.2 ×10⁻⁶ cm/s | Papp at 60 μM (MRP3 [6]; pH 6.5, with emodin 740 μM on mucosal side, teniposide 60 μM, emodin 740 μM on mucosal side, read-out: Papp M-S in the presence of emodin): 91.1 ± 27.3 ×10⁻⁶ cm/s | Papp at 60 μM (MRP3 [6]; pH 6.5, with emodin 740 μM on mucosal side, teniposide 60 μM, emodin 740 μM on mucosal side, read-out: Papp S-M in the presence of emodin): 41.1 ± 6.2 ×10⁻⁶ cm/s
SMILES: COc1cc([C@@H]2c3cc4c(cc3[C@@H](O[C@@H]3O[C@@H]5CO[C@@H](c6cccs6)O[C@H]5[C@H](O)[C@H]3O)[C@H]3COC(=O)[C@H]23)OCO4)cc(OC)c1O [Teniposide]

SMILES: O=C(/C=C/C=C/c1ccc2c(c1)OCO2)N1CCCCC1 [piperine]
Effect on glucuronidation metabolism of emodin [8]: inhibited | Effect on in vivo bioavailability of emodin [8]: significantly improved

SMILES: OC[C@H]1O[C@@H](Oc2c(O)cc(O)cc2C=Cc2ccc(O)cc2)[C@H](O)[C@@H](O)[C@@H]1O [2,3,5,4’-tetrahydroxystilbene-2-β-D-glucoside]
Effect on emodin absorption (Caco-2 cell): could enhance

— paper PMC6023986, “Interactions Between Emodin and Efflux Transporters on Rat Enterocyte by a Validated Ussing Chamber Technique” (Frontiers in Pharmacology, 2018)
